Tested on: rumen-cannulated wethers
Test: Rumen lactic acidosis in rumen-cannulated wethers switched abruptly to concentrate
Format: in vivo, sheep
Details: 60 mg/d; Day 6, 12-hr sample

## CC[C@@]1([C@@H]2O[C@@H]([C@H]3O[C@@](O)(CO)[C@H](C)C[C@@H]3C)C[C@@H]2C)CC[C@H]([C@]2(C)CC[C@]3(C[C@H](O)[C@@H](C)[C@@H]([C@@H](C)[C@@H](OC)[C@H](C)C(=O)O)O3)O2)O1 [Monensin]
  Rumen pH: 5.02
  Ruminal TVFA: 43.6 mM/l
